# Results reported in patent US7572885B2, “Isolated GAGE-7B and 8 proteins” (Ludwig Institute For Cancer Research, priority 1998, dated 2009).
# How the values were obtained:
# [1] = system: GAGE 1, 2, and 8 expression in sarcoma and melanoma cell lines; experiment: Induction of GAGE gene expression by demethylation, RT-PCR with SEQ ID NOS: 4 and 5; assay type: cell-based; conditions: 1 uM, 72 hours in culture medium
# Method: (§1) These experiments were designed to determine expression of GAGE genes in various cell and tumor types. For each type of cell assayed, total RNA was extracted, using standard guanidium-isothiocyanate procedures, as taught by e.g., Davis, et al. in Basic Methods In Molecular Biology, Elsevier Science Publishing Co., New York (1986), pp. 130-135. Reverse transcription was carried out on 2 ug samples of the total RNA, using 2 mM of Oligo(dT)15 primer, in a reaction volume of 20 ul. Portions of the resulting cDNA ( 1/20 of the product), were used in the PCR amplification. In order to amplify GAGE-1, 2, and 8, the primers used were:
# (§2) For GAGE-3, 4, 5, 6; & 7B, the primers were: • 5′- GACCAAGGCG CTATGTAC-3′ • (sense, SEQ ID NO: 6) and SEQ ID NO: 5 For all amplifications, the denaturation step was 94° C. for 5 minutes, then 30 cycles of amplification (1 minute at 94° C., 2 minutes at 58° C., 2 minutes at 72° C.), then a final extension step of 72° C. for 15 minutes. The products were analyzed by agarose gel electrophoresis, with RNA integrity being checked by reverse transcription and amplification of β-actin mRNA.
# (§3) In order to determine if expression of GAGE genes could be induced by demethylation, samples of cultured tumor and normal cells were incubated for 72 hours in culture medium containing 1 uM 5-aza-2′-deoxycytidine. SEQ ID NOS: 4 and 5, supra, were used in the amplification protocol.
# [2] = system: GAGE genes expression in PHA stimulated PBLs; experiment: Induction of GAGE gene expression by demethylation in PHA stimulated PBLs; assay type: cell-based; conditions: 1 uM, 72 hours in culture medium
# Method: as §1, §2, §3
structure (smiles),measurement,setting,value
Nc1ncn([C@H]2C[C@H](O)[C@@H](CO)O2)c(=O)n1 [5-aza-2′-deoxycytidine],"expression of GAGE 1, 2, and 8 after demethylating treatment",[1],induced
same,expression of all GAGE genes following treatment,[2],expressed
